In US7067500B2, “Betaines as adjuvants to susceptibility testing and antimicrobial therapy” (priority 1997, dated 2006):
“Also recorded” adds a separate entry of the source. Counter-ions that a name gives are not always drawn.

How the values were obtained:
[1] = tested on: M. tuberculosis isolate 571/573-BAL; assay: Detergent screen for induced susceptibility, BACTEC 12B growth curves; assay type: cell-based, Mycobacterium tuberculosis; conditions: for RESULT (effect on growth): 571/573-BAL, detergent approximately 17 μg/ml final, BACTEC 12B supplemented with PANTA or P/cax (ceftriaxone 8 μg/ml); for CB-18 effect in the methods of the invention: carboxybetaines tested
[2] = tested on: M. tuberculosis isolates ATCC 27294 and 571/573-BAL; assay: Further studies of the range of activity of betaines; assay type: cell-based, Mycobacterium tuberculosis
Description: FIGS. 32A and 32B show the variability when simple (i.e., unmodified) carboxybetaines with methylene (Detain PB and Velvetex OLB), ethylene (C18-carboxyethylbetaine), and propylene (CB-18) bridges were employed in this assay. This is consistent with the data of Tsubone K. et al., Jour. Pharm. Sci. 80:441–444 (1991) wherein toxicity is correlated with bridge length.
While the apparent bactericidal activity of the amine oxide was anticipated based on the use of these compounds in antimicrobial formulations (Michaels, E. B., U.S. Pat. No. 564,454 and U.S. Pat. No. 641,728), the activity of the Brij compounds and Crosultaine E-30 was surprising. […] Crosultaine E-30 has both an amidopropyl linkage and a hydroxypropyl bridge. […] Historically, the nonionic detergents have been reported to be contaminated with impurities, and only when purified stimulate growth (Dubos, R. J. et al., Jour. Exptl. Med. 83:409–423 (1946)). Impurities might explain the results with the Brij detergents and Crosultaine E-30.

[3] = tested on: M. tuberculosis isolates ATCC 27294 and 571/573-BAL; assay: CB-18 vs. EDTA, BACTEC 12B growth curves; assay type: cell-based, Mycobacterium tuberculosis
[4] = tested on: M. fortuitum complex isolates ATCC 6841 and 495-JHH; assay: CB-18 titration, BACTEC 12B growth curves; assay type: cell-based; conditions: M. fortuitum 495-JHH; cefoxitin (8 μg/ml in PANTA) without CB-18
[5] = tested on: M. tuberculosis isolates ATCC 27294 and 571/573-BAL; assay: CB-18 and TMA-18 comparison, BACTEC 12B growth curves; assay type: cell-based, Mycobacterium tuberculosis
Description: If the mechanism of CB-18's action was similar to that of the quaternary salts (i.e., generally deleterious), then some delay would be anticipated. For example, if the CB-18 effect was a consequence of the surface active property of the detergent, then disruption of cellular function would not only have nonspecific long term consequences, but would also be independent of the isolate. In an effort to examine the similarity in the mechanism, CB-18 was assayed in parallel with trimethyloctadecylammonium bromide (TMA-18 (Aldrich, Milwaukee, Wis., Cat.# 35,924-6): made as a 100× stock in 1:1, water:isopropanol similar to that described for CB-18 in Example 1). The experimental design is outlined in FIG. 6.
In this experiment both ATCC 27294 and 571/573-BAL were cultivated on 7H11-selective media, and then serially diluted in NALC/citrate to 10,000×. The planting solution (i.e., the final dilution (50,000×)) was manufactured by diluting into either buffer, 0.5 mM CB-18, or 0.1 mM TMA-18 (all concentrations represent the final detergent concentration in the planting solution). […] The final concentration of CB-18 during incubation was approximately 17 μg/ml. The final concentration of TMA-18 during incubation was approximately 3.4 μg/ml. […] FIGS. 7A–7C show one experiment wherein ATCC 27294 cells were planted in the different solutions described above, and FIGS. 8A–8C show a parallel experiment wherein 571/573-BAL cells were planted in the same series.

[6] = tested on: M. tuberculosis isolate 571/573-BAL; assay: Planting in lecithin at low inocula, BACTEC 12B growth curves; assay type: cell-based, Mycobacterium tuberculosis
Description: In this experiment the 571/573-BAL isolate was cultivated on 7H11-selective media, serially diluted in NALC/citrate to approximately 1,000×. In an attempt to examine how the inoculum impacted the results of this assay three different stocks were manufactured, one series in buffer and one series in CB-18. […] The planting solutions were manufactured by mixing these three stocks 1:1 with either buffer or a buffered solution of lecithin (Sigma, St. Louis, Mo.; Cat.#: P 5394 (7.5% lecithin was made up as a 100× concentrate in 100% ethanol (3 grams in 40 mls) and diluted in the Tris buffer of Example 1 immediately prior to use)). The final dilutions of three different planting solutions were approximately 5000×, 25,000×, and 100,000×. The final concentration of CB-18 and lecithin in the appropriate planting solutions was approximately 0.5 mM. […] The final concentration of both lecithin and CB-18 during incubation was approximately 17 μg/ml.
Aliquots of the three stocks (i.e., 2,500×, 12,500× and 50,000×) were also taken for quantitative culture by plating on 7H10 plates (Becton Dickinson, Cockeysville, Md.). […] FIG. 5A presents the 5,000× series planted in either buffer or buffer containing lecithin, and FIG. 5B presents the 5,000× series planted in CB-18 or CB-18 combined with lecithin. FIG. 5C presents the 25,000× series planted in either buffer or buffer containing lecithin, and FIG. 5D presents the 25,000× series planted in CB-18 or CB-18 combined with lecithin. FIG. 5E presents the 100,000× series planted in either buffer or buffer containing lecithin, and FIG. 5F presents the 100,000× series planted in CB-18 or CB-18 combined with lecithin.

| Compound | RESULT (effect on growth) [1] | other results |
| --- | --- | --- |
| C16-amidopropyl-sulfatobetaine | No effect | – |
| stearylamidopropyl-carboxybetaine [Schercotaine IAB] | No effect | – |
| CCCCCCCCCCCCCCCCCC[N+](C)(C)Cc1ccccc1.[Cl-] [Benzyldimethyl-stearyl ammonium chloride, benzyldimethyl-stearyl ammonium chloride, reference compound] | Complete suppression of growth | – |
| C[C@H](CCC(=O)NCCC[N+](C)(C)CCCS(=O)(=O)[O-])[C@H]1CC[C@H]2[C@@H]3[C@H](O)C[C@@H]4C[C@H](O)CC[C@]4(C)[C@H]3C[C@H](O)[C@]12C [CHAPS, reference compound] | No effect | – |
| CCCCCCCCCCCCCCCCCC[N+](C)(C)CCCS(=O)(=O)[O-] [SB-18, N-octadecyl-N,N-dimethyl-3-ammonio-1-propane-sulfonate] | significant activity; also recorded: Modest suppression | range of activity ([2]; 571/573-BAL): 20 to 75 µg/mL |
| CCCCCCCCCCCCCC[N+](C)(C)Cc1ccccc1.[Cl-] [benzyldimethyl-tetradecyl ammonium chloride, reference compound] | Complete suppression of growth | – |
| [Cl-].[Cl-].[Mg+2] [MgCl2, reference compound] | – | effect on growth character in the presence of CB-18 ([3]; 571/573-BAL, five-fold molar excess of MgCl2 (85 μg/ml) added to CB-18 17 μg/ml, R.F.): no improvement; effect on the detrimental effects of the CB-18/P-cax combination ([3]; MgCl2 85 μg/ml added to CB-18 17 μg/ml with P-cax, both isolates, especially 571/573-BAL): alleviate, to some degree |
| CO[C@@]1(NC(=O)Cc2cccs2)C(=O)N2C(C(=O)O)=C(COC(N)=O)CS[C@@H]21 [cefoxitin, reference compound] | – | effect on growth [4]: unaffected |
| C[C@H](CCC(=O)O)[C@H]1CC[C@H]2[C@@H]3CC[C@@H]4C[C@H](O)CC[C@]4(C)[C@H]3C[C@H](O)[C@]12C [Deoxycholic acid, deoxycholic acid, reference compound] | No effect | – |
| CCCCCCCCCCCCCCCC[N+](C)(C)CC(=O)[O-] [DeTaine PB, cetyl-carboxymethylbetaine] | Strong suppression of growth | CB-18 effect in the methods of the invention [1]: show the CB-18 effect |
| erucamidopropyl hydroxypropyl sulfobetaine [Crosultaine E-30] | Strong suppression of growth | RESULT (effect on growth) ([1]; listed as Crosultaine E30): significantly suppress growth |
| CCCCCCCCCCCCCCCCCC[N+](C)(C)C.[Br-] [TMA-18, trimethyloctadecylammonium bromide, reference compound] | Complete suppression of growth | effect on growth ([5]; 571/573-BAL, 3.4 μg/ml TMA-18, R.F., PANTA or P/cax): significant delays were observed in all bottles; effect on growth ([5]; ATCC 27294, 3.4 μg/ml TMA-18, R.F., PANTA or P/cax): significant delays in all bottles; effect on growth ([5]; ATCC 27294 and 571/573-BAL, TMA-18 3.4 μg/ml (FIGS. 7C and 8C)): bacteriostatic in isolation; also recorded: inhibitory at low concentrations |
| O=C(O)CN(CCN(CC(=O)O)CC(=O)O)CC(=O)O [EDTA] | – | effect on growth characteristics ([3]; ATCC 27294 and 571/573-BAL, EDTA approximately 17 μg/ml, R.F. or P/cax): no effect |
| CCCCCCCCCCCCCCCCCC[N+](C)(C)CCC(=O)[O-] [C18-carboxyethylbetaine, N-(2-carboxyethyl)-N,N-dimethyl-1-octadecanaminium, inner salt] | strong ability to suppress growth when combined with antibiotics; also recorded: Complete suppression of growth | range of activity ([2]; ATCC 27294): 7 to 13 µg/mL; CB-18 effect in the methods of the invention [1]: show the CB-18 effect |
| CCCCCCCCCCCCCCCCCC(=O)O [Stearic acid, stearic acid, reference compound] | No effect | – |
| CCCCCCCCCCCCCCCC(=O)O [Palmitic acid, palmitic acid, reference compound] | No effect | – |
| CCCCCCCCCCCCCCCCCC[N+](C)(C)CCCCS(=O)(=O)[O-] [C18-sulfobutylbetaine] | Slight delay in growth | – |
| cetyl-(poyoxyethylene)10 [Brij 56, reference compound] | significantly suppress growth; also recorded: Very strong suppression of growth | – |
| oleyl-carboxymethylbetaine [Velvetex OLB-50] | Very strong suppression of growth | CB-18 effect in the methods of the invention [1]: show the CB-18 effect |
| phosphatidylcholine [lecithin] | – | ability to overcome the detrimental effect of CB-18 ([6]; lecithin and CB-18 approximately 17 μg/ml each, CB-18 alone and in combination with antibiotics): able to overcome the detrimental effect of CB-18; ability to overcome the deleterious effect of the antibiotic formulation (P/caz) ([6]; lecithin approximately 17 μg/ml, absence of CB-18): ability to overcome, to some degree; impact on the sensitivity of the BACTEC 12B assay ([6]; lecithin approximately 17 μg/ml, no CB-18): little if any impact |
| oleyl-(poyoxyethylene)10 [Brij 97, reference compound] | significantly suppress growth; also recorded: Very strong suppression of growth | – |
| CCCCCCCCCCCCCCCC[N+](C)(C)CC(O)CS(=O)(=O)[O-] (stereo not shown) [C16-hydroxypropyl-sulfobetaine] | Slight delay in growth | – |
